Test system: ZR-75-1 human breast cancer xenografts
Assay: Growth and response of human ZR-75-1 breast tumor xenografts in estrone-supplemented OVX nude mice, DHEA and/or EM-800 for 9.5 months (Example 1)
Assay type: in vivo
Details: for Inhibition of estrone-stimulated ZR-75-1 tumor size / Category of response: Complete (%) / Category of response: Complete (Number) / Category of response: Partial (%) / Category of response: Partial (Number) / Category of response: Progression (%) / Category of response: Progression (Number) / Category of response: Stable (%) / Category of response: Stable (Number) / Average tumor weight at end of experiment: 9.5 months; for Category of response: Complete (%) / Category of response: Complete (Number) / Category of response: Partial (%) / Category of response: Partial (Number) / Category of response: Progression (%) / Category of response: Progression (Number) / Category of response: Stable (%) / Category of response: Stable (Number) / Average tumor weight at end of experiment: E1-supplemented
[1] = DHEA 0.3 mg, EM-800 15 μg, or EM-800 15 μg + DHEA 0.3 mg
[2] = DHEA 1.0 mg, EM-800 50 μg, or EM-800 15 μg + DHEA 1.0 mg
[3] = DHEA 3.0 mg, EM-800 100 μg, or EM-800 15 μg + DHEA 3.0 mg

Which “Inhibition of estrone-stimulated ZR-75-1 tumor size” value (daily DHEA 0.3 mg or EM-800 15 μg) does the source give for `C[C@]12CC[C@H](O)CC1=CC[C@@H]1[C@@H]2CC[C@]2(C)C(=O)CC[C@@H]12` [DHEA, dehydroepiandrosterone] here?
Its value is 50.4%.

And the “Inhibition of estrone-stimulated ZR-75-1 tumor size” value (daily DHEA 1.0 mg or EM-800 50 μg)?
Its value is 76.8%.

And the “Inhibition of estrone-stimulated ZR-75-1 tumor size” value (daily DHEA 3.0 mg or EM-800 100 μg)?
The value was 80.0%.

What about the “Inhibition of terminal tumor weight” value (DHEA 0.3 mg) of the same compound?
The value was 67%.

What about the “Inhibition of terminal tumor weight” value (DHEA 1.0 mg) of the same compound?
The value was 82%.

And the “Inhibition of terminal tumor weight” value (DHEA 3.0 mg)?
Its value is 85%.

What about the “Category of response: Complete (%)” value [1] of the same compound?
Its value is 28.6%.

And the “Category of response: Complete (Number)” value [1]?
The value was 4.

And the “Category of response: Partial (%)” value [1]?
The value was 0 (0) %.

And the “Category of response: Partial (Number)” value [1]?
Its value is 0 (0).

What about the “Category of response: Progression (%)” value [1] of the same compound?
The value was 50.0%.

And the “Category of response: Progression (Number)” value [1]?
The value was 7.

And the “Category of response: Stable (%)” value [1]?
Its value is 21.4%.

And the “Category of response: Stable (Number)” value [1]?
The value was 3.

And the “Category of response: Complete (%)” value [2]?
The value was 26.7%.

And the “Category of response: Complete (Number)” value [2]?
The value was 4.

And the “Category of response: Partial (%)” value [2]?
Its value is 0 (0) %.

And the “Category of response: Partial (Number)” value [2]?
The value was 0 (0).

What about the “Category of response: Progression (%)” value [2] of the same compound?
Its value is 53.3%.

What about the “Category of response: Progression (Number)” value [2] of the same compound?
Its value is 8.

And the “Category of response: Stable (%)” value [2]?
Its value is 20.0%.

What about the “Category of response: Stable (Number)” value [2] of the same compound?
The value was 3.

What about the “Category of response: Complete (%)” value [3] of the same compound?
The value was 20.0%.

And the “Category of response: Complete (Number)” value [3]?
Its value is 3.

What about the “Category of response: Partial (%)” value [3] of the same compound?
Its value is 0 (0) %.

And the “Category of response: Partial (Number)” value [3]?
Its value is 0 (0).

And the “Category of response: Progression (%)” value [3]?
Its value is 66.7%.

What about the “Category of response: Progression (Number)” value [3] of the same compound?
Its value is 10.

What about the “Category of response: Stable (%)” value [3] of the same compound?
Its value is 13.3%.

And the “Category of response: Stable (Number)” value [3]?
Its value is 2.

And the “Average tumor weight at end of experiment” value (from here on “Average tumor weight at end”) (daily DHEA 0.3 mg, EM-800 15 μg, or EM-800 15 μg + DHEA 0.3 mg)?
The value was 0.37 ± 0.12 g.

What about the “Average tumor weight at end” value (daily DHEA 1.0 mg, EM-800 50 μg, or EM-800 15 μg + DHEA 1.0 mg) of the same compound?
Its value is 0.20 ± 0.06 g.

What about the “Average tumor weight at end” value (daily DHEA 3.0 mg, EM-800 100 μg, or EM-800 15 μg + DHEA 3.0 mg) of the same compound?
Its value is 0.17 ± 0.06 g.

Source: patent US11452731B2, “Method of treating and preventing loss of cognition” (ENDORECHERCHE, INC., priority 2009, dated 2022)
